Where “and” joins values, the source holds several entries; their conditions need not be identical. Equal values may be shown once. Calls of active or inactive are those of the source. The rule behind the calls is not given here.
Biological target: Peptidyl-prolyl cis-trans isomerase FKBP1A (Homo sapiens) (UniProt P62942)
Assay: small-molecule binding to FKBP12 – biophysical, NMR detection (AID 608)
Details: purified FKBP12

Sequence of Peptidyl-prolyl cis-trans isomerase FKBP1A (Homo sapiens) (P62942 whole entry, looked up): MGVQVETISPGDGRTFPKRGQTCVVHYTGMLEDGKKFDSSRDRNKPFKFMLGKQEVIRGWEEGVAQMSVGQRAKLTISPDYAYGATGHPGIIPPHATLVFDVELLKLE

| SMILES | Kd |
| --- | --- |
| OCc1ccc(-c2ccccn2)s1 | > 4 mM (inactive) |
| COc1cccc(NC(=O)c2nc3ncccn3n2)c1 | > 4 mM (inactive) |
| NC(=S)NC(=O)CN1C(=O)c2ccccc2C1=O | > 4 mM (inactive) |
| Cc1cc(C(=O)NN2CCOCC2)c(C)o1 | > 4 mM (inactive) |
| COc1cc(C2NC(=S)NC(C)=C2C(C)=O)ccc1O (configuration not stated) | > 4 mM (inactive) |
| NC(=O)Cn1nnc(-c2ccc(C(F)(F)F)cc2)n1 | > 4 mM (inactive) |
| O=C(CSc1ncccn1)NCc1ccco1 | > 4 mM (inactive) |
| CN(C)c1nc(N2CCOCC2)c2cnn(C)c2n1 | > 4 mM (inactive) |
| Cc1sc2nc3n(c(=O)c2c1C)CCCS3 | > 4 mM (inactive) |
| C=C1C2=CC(=O)O[C@@H](c3ccoc3)[C@]2(C)CCC1[C@@]1(C)C=CC(=O)C(C)(C)[C@@H]1CC(=O)OC (some centres not stated) | > 4 mM (inactive) |
| C=CC1=C(C)/C(=C/c2[nH]c(Cc3[nH]c(/C=C4\NC(=O)C(C)=C4C=C)c(C)c3CCC(=O)O)c(CCC(=O)O)c2C)NC1=O | > 4 mM (inactive) |
| Cc1nnc(N2CCc3ccccc3C2)[nH]c1=O | > 4 mM (inactive) |
| COC(=O)c1ccccc1C | > 4 mM (inactive) |
| Cc1c(C(=O)OC(C)C)[nH]c2c1C(=O)CCC2 | > 4 mM (inactive) |
| Cc1ccc(-n2cnnn2)c2cccnc12 | > 4 mM (inactive) |
| O=C(O)C1CC(=O)N(Cc2ccco2)C1 (configuration not stated) | > 4 mM (inactive) |
| CC(C)[C@@H]1CC[C@@H](C)C[C@H]1O | > 4 mM (inactive) |
| CC(=O)Nc1c(C#N)c(C(C)(C)C)cn1C | > 4 mM (inactive) |
| O=C(O)C1CCN(c2ccc(C(F)(F)F)cn2)CC1 | > 4 mM (inactive) |
| CC(=O)n1c(N)nc2ccccc21 | > 4 mM (inactive) |
| O=C(Nc1cccc(Cl)c1)c1ccncc1 | > 4 mM (inactive) |
| C=C(C)[C@H]1CC=C(C(=O)O)CC1 | > 4 mM (inactive) |
| CCN1C(=O)c2c(C)nc3ccccc3c2C1=O | > 4 mM (inactive) |
| O=C(Cc1cccs1)Nc1ccccn1 | > 4 mM (inactive) |

| SMILES | Kd |
| --- | --- |
| COCCn1c(N)nc2c1c(=O)[nH]c(=O)n2C | > 4 mM (inactive) |
| COc1cc(C)c2c(c1C=O)Oc1c(c(C)c(O)c3c1C(O)OC3=O)OC2=O (configuration not stated) | > 4 mM (inactive) |
| CCCc1ncc(C(O)c2cccc3ccccc23)n1C (configuration not stated) | > 4 mM (inactive) |
| COc1ccc(-c2nnsc2N)cc1 | > 4 mM (inactive) |
| O=c1[nH]cc(S(=O)(=O)N2CCc3ccccc32)c(=O)[nH]1 | > 4 mM (inactive) |
| COC(=O)C[C@H]1C2(C)CC34OC5(C)O[C@@]6([C@H](OC)C(OC(=O)C(C)C)[C@]7(C)C(/C(=C(/OC)C(C)C)C(=O)O[C@H]7c7ccoc7)[C@@]6(O5)[C@H](OC)[C@@]3(OC)C2OC(C)=O)[C@]14C (some centres not stated) | > 4 mM (inactive) |
| O=C(NC(=S)NCCO)c1ccccc1 | > 4 mM (inactive) |
| CN(C)C(=O)c1ccccc1-c1ccccc1 | > 4 mM (inactive) |
| CC1CCN(C(=S)c2ccccc2O)CC1 | > 4 mM (inactive) |
| O=C(CSc1ccc(Cl)cc1)N1CCOCC1 | 0.014 mM and 0.019 mM |
| O=C(NC1CCS(=O)(=O)C1)c1cccs1 (configuration not stated) | > 4 mM (inactive) |
| CCOc1ccc(C)cc1S(=O)(=O)n1ccnc1 | > 4 mM (inactive) |
| Nc1cccc(-n2cccc2)c1 | > 4 mM (inactive) |
| COc1cccc(N2CCN(C(=O)c3cccnc3)CC2)c1 | > 4 mM (inactive) |
| Nc1csc(C(=O)O)c1 | > 4 mM (inactive) |
| CCOc1ccc(C(=O)c2ccc(OC)c(O)c2O)cc1 | > 4 mM (inactive) |
| Clc1ccccc1-c1nc(-c2cccnc2)no1 | > 4 mM (inactive) |
| C=C1C(=O)OC2CC1C(OC(C)=O)C/C(C)=C/CC/C(C)=C/CC[C@]2(C)O (some centres not stated) | > 4 mM (inactive) |
| COc1cc(O)c(C(=O)c2ccccc2)cc1O | > 4 mM (inactive) |
| CC1(C)C2CC[C@]3(C)C(C(=O)C=C4[C@@H]5C[C@@](C)(C(=O)O)CC[C@]5(C)CC[C@]43C)[C@@]2(C)CC[C@@H]1O (some centres not stated) | > 4 mM (inactive) |
| c1cncc(Nc2nc(-c3cccnc3)cs2)c1 | > 4 mM (inactive) |
| CN1C(=O)c2ccc(N=C3NC(=O)CS3)cc2C1=O | > 4 mM (inactive) |
| O=C(Nc1ccccn1)c1cc(-n2cnnc2)ccc1Cl | > 4 mM (inactive) |
| O=C1c2ccncc2C(=O)N1CNc1ccccn1 | > 4 mM (inactive) |

| SMILES | Kd |
| --- | --- |
| Cc1nn(-c2ccccc2)nc1CN | > 4 mM (inactive) |
| O=C1Nc2ccccc2C12OCCO2 | > 4 mM (inactive) |
| Cc1cc(=O)[nH]c(N2CCN(Cc3ccccc3)CC2)n1 | > 4 mM (inactive) |
| CC(=O)O[C@@H]1CC[C@@]2(C)C(CC[C@]3(C)C2CC=C2C4CC(C)(C)CC[C@]4(C(=O)O)CC[C@]23C)C1(C)C (some centres not stated) | > 4 mM (inactive) |
| NCc1ccc2c(c1)OCO2 | > 4 mM (inactive) |
| O=C(O)CCCCC1SCC2NC(=O)NC21 (configuration not stated) | > 4 mM (inactive) |
| NC(=O)c1cc(N)cc(C(N)=O)c1 | > 4 mM (inactive) |
| COc1cc2ccc(=O)oc2c(OC)c1OC | > 4 mM (inactive) |
| CC(C)[C@@H]1CC[C@@H](C)C[C@H]1OC(=O)c1ccccc1 | > 4 mM (inactive) |
| COc1ccc(C2NC(C(=O)O)CS2)cc1 (configuration not stated) | > 4 mM (inactive) |
| C[C@H]1[C@H]2CCC3C4CC=C5C[C@@H](N(C)C)CC[C@]5(C)C4CC[C@@]32CN1C (some centres not stated) | > 4 mM (inactive) |
| COc1cccc2c(=O)n(CC(N)=O)ccc12 | > 4 mM (inactive) |
| CC(C)(C)C(=O)N1CCCC1C(=O)O (configuration not stated) | > 4 mM (inactive) |
| CCOC(=O)C1C(=O)C2CCN1CC2 (configuration not stated) | > 4 mM (inactive) |
| CSc1nc2cc(F)c(F)cc2n1C | > 4 mM (inactive) |
| COc1ccc(/C=C2\SC(N)=NC2=O)cc1 | > 4 mM (inactive) |
| Fc1cc2nccnc2cc1N1CCSCC1 | > 4 mM (inactive) |
| COC(=O)c1ccccc1N(C)S(C)(=O)=O | > 4 mM (inactive) |
| C=C[C@](C)(O)CCC=C(C)C | > 4 mM (inactive) |
| Cc1[nH]n(-c2ccccc2)c(=O)c1[N+](=O)[O-] | > 4 mM (inactive) |
| O=C(/C=C/c1ccccc1)NC1CCS(=O)(=O)C1 (configuration not stated) | > 4 mM (inactive) |
| COc1ccccc1-c1n[nH]c(=O)o1 | > 4 mM (inactive) |
| CCCn1c(C)cc(=O)[nH]c1=O | > 4 mM (inactive) |
| COc1cc2c(cc1OC)C(=O)OC2 | > 4 mM (inactive) |

| SMILES | Kd |
| --- | --- |
| NC(=O)C1CCN(C2CC(=O)NC2=O)CC1 (configuration not stated) | > 4 mM (inactive) |
| CCOc1cccc(C(=O)c2ccc(O)c(O)c2O)c1 | > 4 mM (inactive) |
| O=C(O)C1=C[C@@H](O)[C@@H](O)[C@H](O)C1 | > 4 mM (inactive) |
| CN1CCCC1C(=O)O (configuration not stated) | > 4 mM (inactive) |
| Cn1nnc2cc(C(=O)NC3=NCCS3)ccc21 | > 4 mM (inactive) |
| COCC(=O)Nc1nc2ccc(C)cc2s1 | > 4 mM (inactive) |
| Cc1noc(C)c1C(=O)Nc1ccccn1 | > 4 mM (inactive) |
| O=C(Nn1cnnc1)c1cccc(C(F)(F)F)c1 | > 4 mM (inactive) |
| CSc1cc(C)[nH]c(=O)n1 | > 4 mM (inactive) |
| O=C1CCCc2c1nc(-c1ccccc1)n2O | > 4 mM (inactive) |
| O=C(CSc1ncn[nH]1)c1ccccc1 | > 4 mM (inactive) |
| OCc1ccc(CN2CCOCC2)cc1 | > 4 mM (inactive) |
| O=C(NS(=O)(=O)c1ccccc1)c1ccccc1F | > 4 mM (inactive) |
| O=C(O)c1ccc(Oc2ccccc2)nc1 | > 4 mM (inactive) |
| CCCc1nc2ccccc2c2nc(N)nn12 | > 4 mM (inactive) |
| Oc1ccc(/C=C/c2cc(O)cc(O)c2)cc1 | > 4 mM (inactive) |
| O=S(=O)(NCc1ccco1)N1CCOCC1 | > 4 mM (inactive) |
| Nc1nc2ncc(=O)[nH]c2c(=O)[nH]1 | > 4 mM (inactive) |
| COc1ccccc1NC(=O)c1ccc(Br)o1 | > 4 mM (inactive) |
| Cc1ccc(NS(=O)(=O)N2CCOCC2)cc1 | inactive |
| O=C(Nc1ccc2ccccc2c1)c1cnccn1 | > 4 mM (inactive) |
| COc1ccc(-c2nc(N)n(C(C)=O)n2)cc1 | > 4 mM (inactive) |
| CC1=NCCc2c1[nH]c1cc(O)ccc21 | > 4 mM (inactive) |
| Cc1cc(C)n(S(=O)(=O)c2ccc(C)c(C)c2C)n1 | > 4 mM (inactive) |

| SMILES | Kd |
| --- | --- |
| Cc1ccccc1N1C(=O)CC(=O)NC1=O | > 4 mM (inactive) |
| C=C1C2CC[C@@]3(C)[C@H](c4ccoc4)OC(=O)C[C@]13O[C@H]1CC(=O)C(C)(C)C(CC(=O)OC)C21C (some centres not stated) | > 4 mM (inactive) |
| COc1ccc(-c2oc3c(CC=C(C)C)c(O[C@@H]4O[C@H](CO)[C@@H](O)[C@H](O)[C@H]4O)cc(O)c3c(=O)c2O[C@@H]2O[C@@H](C)[C@H](O)[C@@H](O)[C@H]2O)cc1 | > 4 mM (inactive) |
| Cc1sc2nc[nH]c(=S)c2c1C | > 4 mM (inactive) |
| Cc1ccc(N2C(=O)CCC2=O)cc1 | > 4 mM (inactive) |
| CNC(=O)c1c(O)c2ccccc2[nH]c1=O | > 4 mM (inactive) |
| Nc1ccnc(C(=O)O)c1 | > 4 mM (inactive) |
| Cc1occc1C(=O)Nc1sccc1C(N)=O | > 4 mM (inactive) |
| O=C(O)c1c[nH]c2ccccc12 | > 4 mM (inactive) |
| CSc1nn(-c2ccccc2)c(N)c1C#N | > 4 mM (inactive) |
| O=c1c(O)c(-c2ccccc2)oc2cc(O)ccc12 | > 4 mM (inactive) |
| Cn1c2ccccc2n2c(=S)[nH]nc12 | > 4 mM (inactive) |
| C[C@@H]1CC[C@@]2(OC1)O[C@H]1CC3C4CC[C@H]5C[C@@H](O)CC[C@]5(C)C4CC[C@]3(C)[C@H]1[C@@H]2C (some centres not stated) | > 4 mM (inactive) |
| O=C(NCCO)c1cc2ccccc2c(=O)s1 | > 4 mM (inactive) |
| O=C(O)c1ccnn1-c1ccccc1 | > 4 mM (inactive) |
| O=S1(=O)CCC2CC=CCC21 (configuration not stated) | > 4 mM (inactive) |
| NC1=NC(=O)/C(=C\c2ccco2)S1 | > 4 mM (inactive) |
| C=C1CCC(=O)C(C)CCC2C1CC2(C)C (configuration not stated) | > 4 mM (inactive) |
| Cc1cc(C)n2nc(-c3cccnc3)nc2n1 | > 4 mM (inactive) |
| CC(=O)c1ccc(NS(=O)(=O)c2cccc(C)c2)cc1 | > 4 mM (inactive) |
| Nc1cccc2c(=O)[nH][nH]c(=O)c12 | > 4 mM (inactive) |

From PubChem BioAssay AID608 (Sanford-Burnham Center for Chemical Genomics, 2007)
